Test results from patent publication US6849405B2, “Translation enhancer element of the human amyloid precursor protein gene” (The Brigham and Women's Hospital, Inc., priority 1997, dated 2005).

Legend:
[1] = test system: alpha-1 antichymotrypsin (ACT) mRNA; assay: Northern blot of ACT-mRNA, primary astrocytes; format: cell-based, human
Description: Total RNA (10 μg) was extracted from primary astrocytes and astrocytoma cells with a RNA-STAT kit (Tel-Test). RNA samples were denatured in 50% formamide/2.2 M formaldehyde/20 mM MOPS/5 mM sodium acetate/0.5 mM EDTA, pH 7.4, at 60° C. for 10 minutes, electrophoresed on 1.0% agarose-formaldehyde gels, blotted onto Hybond-N filters and immobilized by UV crosslinking and heating filters to 80° C. Filters were prehybridized for 3 hours and hybridized overnight in a solution consisting of 50% formamide, […] denatured salmon sperm DNA, 5×SSC, 0.1% sodium dodecyl sulfate and 5×Denhardt's solution. Following hybridization, filters were washed twice for a total of 1 hour in 2×SSC/0.2% sodium dodecyl sulfate at room temperature and twice each for a total of 1 hour in 0.5×SSC/0.1% sodium dodecyl sulfate at 55° C. Equal loading was verified by ethidium bromide staining, non-specific hybridization of the ACT probe to the 28S rRNA, and by standardized hybridization to the GAPDH cDNA probe as an internal standard. The APP cDNA probe corresponded to the unique internal 1 kb fragment gel purified from the 3 kb APP cDNA (Kang et al. Nature 325: 733 (1987)), the ACT cRNA probe to a PstI/SacI fragment (536-943) in the human ACT cDNA (Chandra, et al., Biochemistry 22: 5055 (1983)) and the GAPDH probe to the human GAPDH gene (Tokunaga, et al., Cancer Res. 47: 5616 (1987)).

[2] = test system: pSV2CAT parental vector; assay: CAT reporter activity in astrocytoma cells transfected with parental vector pSV2CAT; format: cell-based, human
Description: Astrocytoma and neuroblastoma cells were transfected with pSV2CAT or pSV2(APP)CAT by lipofection. Briefly, lipofectamine reagent (Boehringer) was added to DMEM (without serum) and allowed to sit 30 minutes at room temperature. Plasmids (10 μg) in an equal volume of DMEM were then added, and, after sitting for 45 minutes at room temperature, the lipid/DNA solution was added to 60% confluent cells on 100×20 mm cell culture plates. After 4 hours, this solution was removed, and the cells were washed twice in DMEM (without serum). Fresh DMEM medium (containing 10% fetal calf serum) was added. At this time, treatments were administered which included: (1) 0.5 ng/ml IL-1α; (2) 0.5 ng/ml IL-1β; (3) 5 μM Fe2TF (holo-transferrin); and (4) unstimulated controls. […]
After harvesting, cells were resuspended in 100 μl 0.25 M Tris, pH 7.8, and subjected to three cycles of freezing (liquid nitrogen) and […] (37° C.) to lyse cells. […] Protein concentration was determined by a Biorad assay, and exactly 20 μg of lysate was added to a CAT reaction mix containing 50 μl 1M Tris, pH 7.8, 20 μl acetylcoenzyme-A (3.5 mg/ml) and […] ^14C-labeled chloramphenicol (25 mCi/ml). […] For quantitative analysis, the areas on the TLC plates which aligned with dots on the film were excised and the radioactivity was counted in 5 ml of scintillation cocktail (Econofluor) using a scintillation counter (Hewlett Packard). […]

For interleukin-1α [IL-1α], the “increase in ACT-mRNA levels (densitometry)” value [1] was “greater than 10 fold”.

interleukin-1β [IL-1β] was tested, and the “effect on CAT activity, parental vector” value [2] was “no effect”.
